Results published in patent publication US8685952B2, “Method for the treatment of diabetes” (KOWA Co., Ltd., priority 2006, dated 2014).
Where a name gives a salt, the structure may show the parent alone.

Key:
KKAy mice [1] = conditions: type II diabetes model, reported in the literature; cited from earlier work
KKAy mice [2] = experiment: oral glucose tolerance test in KKAy mice after 21 days of oral administration; type: in vivo; conditions: male KKAy mice; oral once a day for 21 days; pitavastatin 10 mg/kg, pravastatin 50 mg/kg, enalapril maleate 1 mg/kg; glucose 2 g/kg oral after 18 h fasting; compared with control group (combination also vs single administration groups, P<0.05)
Method: Male KKAy mice (age: 10 weeks, Nippon Cler Co., Ltd.) were provided. Throughout the duration of the experiment, the mice were housed in a cage with a controlled light/dark cycle (duration of light period with a room light: 7:00 a.m. to 7:00 p.m.) at a temperature of 23±3° C. and a humidity of 55±15% and were allowed to freely take a solid chow (CE-2; Nippon Cler Co., Ltd.) and tap water. Pitavastatin and/or enalapril maleate were suspended in a 0.5-mass % aqueous solution of carboxymethyl cellulose (Iwai Kagaku Co., Ltd.) so that the pitavastatin content and the enalapril maleate content were adjusted to 1 mg/mL and 0.1 mg/mL, respectively. Since pitavastatin has a water content of 9.43%, pitavastatin was weighed in an amount of 1.1 times by mass the target dose for compensation. The suspension was refrigerated (4° C.) in a light-tight bottle. The suspensions were prepared every 7 days. Twenty four KKAy mice were randomly divided into the following four groups (six mice per group): a control group, a pitavastatin alone (10 mg/kg) group, an enalapril maleate alone (1 mg/kg) group, and a pitavastatin (10 mg/kg) and enalapril maleate (1 mg/kg) combined use group. Each of pitavastatin and enalapril maleate was orally administered once a day at a dose of 10 mL/kg for 21 days, and a 0.5 mass % aqueous sodium carboxymethyl cellulose solution (10 mL/kg) was orally administered to the control group. […] Immediately after collection, blood glucose level was determined by means of a […] reader (GR-101, product of Terumo Co., Ltd.). After determination of the initial blood glucose level, an aqueous glucose solution was orally administered to each mouse (2 g/10 mL/kg), and blood glucose level was determined in a similar manner at 15, 30, 60, and 120 minutes after administration of glucose. In each group, AUC of blood glucose level was calculated. The differences between the control group and the drug-administered groups were analyzed on the basis of Dunnett's multiple comparison test, preceded by Bartlett's analysis of variance. […]

SMILES	effect on impaired glucose tolerance / insulin resistance (KKAy mice [1])	AUC of blood glucose level (to glucose tolerance hour 2) (KKAy mice [2])
O=C([O-])C[C@H](O)C[C@H](O)/C=C/c1c(C2CC2)nc2ccccc2c1-c1ccc(F)cc1.O=C([O-])C[C@H](O)C[C@H](O)/C=C/c1c(C2CC2)nc2ccccc2c1-c1ccc(F)cc1.[Ca+2] [pitavastatin, pitavastatin calcium]	effect of improving impaired glucose tolerance	tended to be reduced
CCOC(=O)[C@H](CCc1ccccc1)N[C@@H](C)C(=O)N1CCC[C@H]1C(=O)O [enalapril maleate]		tended to be reduced
CC[C@H](C)C(=O)O[C@H]1C[C@H](O)C=C2C=C[C@H](C)[C@H](CC[C@@H](O)C[C@@H](O)CC(=O)O)[C@H]21 [pravastatin, pravastatin sodium]	effect of reversing impaired glucose tolerance	tended to be reduced
CCOC(=O)[C@H](CCc1ccccc1)N[C@H]1CS[C@H](c2cccs2)CN(CC(=O)O)C1=O [temocapril]	reduction of insulin resistance	
